These results are taken from USRE34284E, “Method for assaying proteolytic enzymes” (bioMerieux Vitek, Inc., priority 1992, dated 1993).

Values joined by “and” are separate entries in the source; they are usually repeats but may differ in a detail not shown here. Identical values can stand only once. Like-named read-outs stand apart in the source and are kept apart here.

In test [1] the test system is trypsin. Description: Kinetic constants for trypsin-catalyzed hydrolysis of BOC-ARG-MBTH, continuous assay (Example 18). Type of test: biochemical. The conditions noted are these: for kc (kinetic catalytic constant) / Km: tris buffer pH 7.8, 590 nm; for Km: read-out: Km (binding constant). The protocol:
Determination of the Kinetic Constants for the Trypsin Catalyzed Hydrolysis of N-(N-t-butoxycarbonyl)-L-Arginyl 3-methyl benzothiazolinone hydrazone (continuous assay)).
In a one cm. cuvette were mixed 3.0 mL of 0.02M tris buffer, pH 7.8, containing 0.02M 3-dimethylamino benzoic acid (DMAB) 0.1 mL of 0.065M potassium ferricyanide, and 0.1 mL of substrate (BOC-ARG-MBTH). The reaction was initiated by the addition of 1 0.1 mL of trypsin (2.33×10^-4 M in 0.1M pyrophosphate buffer, pH 8.3). Eight concentrations of substrate, from 9.98×10^-4 M to 7.8×10^-6 M, were assayed in triplicate. The increase in absorption at 590 nm was monitored continuously and the initial rates were determined. Under the conditions of the assay, a molar absorptivity of 57,000 was used to determine the concentration of the chromogen (MBTH-DMAB) produced by the hydrolysis of substrate. Table I contains the date used to determine the binding and kinetic constants (Km, kc).

Test [2] concerns trypsin. As to the kind of experiment: Continuous assay for trypsin, hydrolysis of Z-GLY-PRO-ARG-MBTH (Example 16). Type of test: biochemical. The note with it: 1 μg trypsin, 0.14M Tris pH 7.8, 0.0131M DMAB, 0.002M potassium ferricyanide, 3% dimethylformamide; substrate 1.74×10^-3, 5.8×10^-4 and 3.9×10^-4 M in triplicate; 590 nm, 5 minutes. As for the experimental part: Saturation kinetics for N-(N-benzyloxycarbonyl)glycyl-L-prolyl-L-arginyl 3-methyl-2-benzothiazolinone hydrazone with trypsin).
A continuous assay for trypsin was performed, i.e., the oxidizing and coupling reagents for color development were included with the substrate in the reaction mixture so that color development may be monitored on a continuous basis with time. In this example the dye precursor is developed to a dye without destroying the enzymatic activity of the enzyme. The reaction was initiated by the addition of 0.1 mL of enzyme (10 μg/mL) to 0.9 mL of buffer solution containing substrate (Z-GLY-PRO-ARG-MBTH) and color developing reagents. The final concentrations in the cuvette were 1 μg trypsin +0.14M Tris buffer, pH 7.8 +0.0131M 3-dimethylamino benzoic acid (DMAB) +0.002M potassium ferricyanide +3% dimethylformamide +substrate. Substrate concentrations of 1.74×10^-3 M, 5.8×10^-4 M and 3.9×10^-4 M were assayed in triplicate. The increases in absorbance at 590 nm were monitored continuously for 5 minutes and the initial rates determined. Using the molar absorptivity of 57,000 for the chromogen produced (MBTH-DMAB), the average rate of hydrolysis was calculated to be 4.43±0.1×10^-6 mol min^-1.

[3] abbreviates: Woolf-Augustinssen-Hofstee method.

In the case of `Cn1c(=NNC(=O)[C@H](CCCNC(=N)N)NC(=O)OC(C)(C)C)sc2ccccc21` [BOC-ARG-MBTH, N-(N-t-butoxycarbonyl)-L-Arginyl 3-methyl benzothiazolinone hydrazone], the I/V was 0.000565 min/M and 0.000528 min/M and 0.000625 min/M in the test on trypsin [1] (I/S 100 M^-1); 0.000699 min/M and 0.000742 min/M with trypsin [1] (I/S 200 M^-1); 0.000766 min/M and 0.00088 min/M and 0.000819 min/M in the test on trypsin [1] (I/S 401 M^-1); 0.00108 min/M and 0.001188 min/M and 0.001033 min/M with trypsin [1] (I/S 802 M^-1); 0.001697 min/M and 0.001607 min/M and 0.001827 min/M with trypsin [1] (I/S 1603 M^-1); 0.002969 min/M and 0.003393 min/M in the test with trypsin [1] (I/S 2305 M^-1). The I/V in the test on trypsin [1] (I/S 6413 M^-1) is 0.005056 min/M and 0.00528 min/M; in the test on trypsin [1] (I/S 12826 M^-1) it was 0.009901 min/M and 0.009506 min/M. Besides, the V/S in the test with trypsin [1] (I/S 100 M^-1) is 0.00177 min⁻¹ and 0.0019 min⁻¹ and 0.0016 min⁻¹; with trypsin [1] (I/S 200 M^-1), 0.00287 min⁻¹ and 0.0027 min⁻¹; with trypsin [1] (I/S 401 M^-1), 0.00523 min⁻¹ and 0.00456 min⁻¹ and 0.00489 min⁻¹; with trypsin [1] (I/S 802 M^-1), 0.00743 min⁻¹ and 0.00675 min⁻¹ and 0.00776 min⁻¹; with trypsin [1] (I/S 1603 M^-1), 0.00945 min⁻¹ and 0.00877 min⁻¹; in the test with trypsin [1] (I/S 2305 M^-1), 0.01808 min⁻¹ and 0.0108 min⁻¹ and 0.00945 min⁻¹. Also, the V/S is 0.01268 min⁻¹ and 0.01215 min⁻¹ in the test on trypsin [1] (I/S 6413 M^-1); 0.01295 min⁻¹ and 0.01349 min⁻¹ with trypsin [1] (I/S 12826 M^-1). Also, the “kc (kinetic catalytic constant)” value in the test on trypsin [1] (Lineweaver-Burk plot) came to 0.0436 s⁻¹; with trypsin [1] (setting [3]), 0.0428 s⁻¹. Also, the Michaelis-Menten constant (Km) was determined as 1.41 mM in the test with trypsin [1] (Lineweaver-Burk plot) and 1.29 mM in the test with trypsin [1] (setting [3]).

Regarding `Cn1c(=NNC(=O)[C@H](CCCNC(=N)N)NC(=O)[C@@H]2CCCN2C(=O)CNC(=O)OCc2ccccc2)sc2ccccc21` [Z-GLY-PRO-ARG-MBTH, N-(N-benzyloxycarbonyl)glycyl-L-prolyl-L-arginyl 3-methyl-2-benzothiazolinone hydrazone], in the test with trypsin [2], the “average rate of hydrolysis” value is reported as 4.43±0.1×10^-6 mol min^-1.

Broadly, the Km is the concentration of substrate that gives half-maximal velocity.
